Values of other authors in patent US20140366440A1, “METHOD FOR PRODUCING CLONE SEEDLINGS” (OKAYAMA PREFECTURE, priority 2009, published 2014).

Key:
[1] = tested on: calluses of a Russell prairie gentian; conditions: medium containing glutathione; cited from earlier work
calluses of a rice plant = conditions: medium containing glutathione; cited from earlier work
[2] = tested on: callus of a tobacco plant; conditions: cited from earlier work
[3] = tested on: Eucalyptus globulus elite tree; conditions: in the presence of auxin; Sotelo and Monza, Agrociencia (2007); cited from earlier work

## N[C@@H](CCC(=O)N[C@@H](CS)C(=O)NCC(=O)O)C(=O)O [glutathione]
[1]
  redifferentiation of callus: promotes redifferentiation
Calluses of a rice plant
  redifferentiation of callus: promotes redifferentiation
[2]; addition of glutathione of 1 mM
  forming an adventitious bud from callus: inhibits

## CCCCS(=N)(=O)CCC(N)C(=O)O (centres unmarked) [buthionine sulfoximine (BSO), buthionine sulfoximine, reference compound]
[2]; addition of BSO
  number of differentiation of adventitious buds per callus: remarkably increases

## auxin
[3]
  rooting rate: ≤ 25%
